{"source": "patent US20250250239A1", "about": "“SOLID STATE FORMS OF MAVACAMTEN AND PROCESS FOR PREPARATION THEREOF” (Assia Chemical Industries Ltd., priority 2022, published 2025)", "type_in_all_cases": "physicochemical", "key": {"[1]": {"test": "Storage stability at different relative humidities (XRPD analysis)", "conditions": "high and low relative humidity, ambient temperature", "method": "(§1) Sample, after being powdered in a mortar and pestle, is applied directly on a silicon plate holder. The X-ray powder diffraction pattern was measured with Philips X'Pert PRO X-ray powder diffractometer, equipped with Cu irradiation source=1.54184 Å (Ångstrom), X'Celerator (2.022° 2θ) detector. Scanning parameters: angle range: 3-40 deg., step size 0.0167, time per step 37 s, continuous scan. The described peak positions were determined using silicon powder as an internal standard.\n(§2) Samples of Mavacamten Form 7 were subjected to conditions of different relative humidities at ambient temperature; TGA weight loss analysis was performed on the samples after 7 days, XRPD analysis was performed after 30 days."}, "[2]": {"test": "TGA weight loss after storage at different relative humidities (hygroscopicity)", "conditions": "for TGA weight loss after 7 days (up to 190° C.): ambient temperature", "method": "as §2"}, "[3]": {"test": "Sauna experiments (exposure to solvent vapors, XRPD)", "method": "as §1\nSamples of Mavacamten Form 7 (about 20-30 mg) were exposed for 7 days to vapors of different solvents in a sealed chamber."}, "[4]": {"test": "Grinding experiments (strong grinding and solvent drop grinding, XRPD)", "conditions": "for XRPD analysis results: 2 minutes", "method": "as §1\nSamples of Mavacamten Form 7 were subjected to strong grinding, and to solvent drop grinding in isopropanol, ethanol, ethyl acetate, acetone and water. Grinding was carried out on the samples alone, or in the presence of a solvent. In these experiments, about 20 mg of the sample is placed in a mortar and ground with a pestle for 2 minutes. The solvent, when used, as added to the crystalline material before grinding, in a volume of 10 microliters."}, "[5]": {"test": "Thermal stability (heating, XRPD)", "conditions": "Heating 100° C., 30 minutes", "method": "as §1\nA sample of Mavacamten Form 7 was subjected to heating up to 100° C. for 30 minutes."}, "[6]": {"test": "Stability to compression (pressure of 1 ton, XRPD)", "conditions": "Pressure (1 tons), XRPD after 2 minutes", "method": "as §1\nA sample of Mavacamten Form 7 was subjected to a pressure of 1 ton (Atlas® Autopress hydraulic press, set to 1 ton). XRPD analysis was performed on the sample after 2 minutes."}, "[7]": {"test": "Stability experiments, all tested stress conditions (summary)", "conditions": "strong grinding, pressure of 1 ton, high humidity (up to 100% RH for 30 days), high temperature (up to 100° C.)", "from_the_text": "Example 2: Stability Experiments"}}, "note": "“Also recorded” adds a separate entry of the source."}
{"compound": "CC(C)n1c(=O)cc(N[C@@H](C)c2ccccc2)[nH]c1=O", "note": "[Mavacamten Form 7, 6-{[(1S)-1-phenylethyl]amino}-3-(propan-2-yl)-1,2,3,4-tetrahydropyrimidine-2,4-dion]", "values": [{"measurement": "Stability at relative humidity conditions", "setting": "[1]", "result": "stable at high and low relative humidity conditions"}, {"measurement": "Hygroscopicity", "setting": "[2]; as confirmed by TGA, different relative humidities", "result": "non-hygroscopic"}, {"measurement": "TGA weight loss after 7 days (up to 190° C.)", "setting": "[2]; relative humidity 20%", "result": 0.7, "unit": "%"}, {"measurement": "TGA weight loss after 7 days (up to 190° C.)", "setting": "[2]; relative humidity 40%", "result": 0.6, "unit": "%"}, {"measurement": "TGA weight loss after 7 days (up to 190° C.)", "setting": "[2]; relative humidity 60%", "result": 0.8, "unit": "%"}, {"measurement": "TGA weight loss after 7 days (up to 190° C.)", "setting": "[2]; relative humidity 80%", "result": 0.5, "unit": "%"}, {"measurement": "TGA weight loss after 7 days (up to 190° C.)", "setting": "[2]; relative humidity 100%", "result": 1, "unit": "%"}, {"measurement": "XRPD analysis results", "setting": "[3]; Sauna (RT/7 days) (ethanol)", "result": "No polymorphic conversion"}, {"measurement": "XRPD analysis results", "setting": "[3]; Sauna (RT/7 days) (ethyl acetate)", "result": "No polymorphic conversion"}, {"measurement": "XRPD analysis results", "setting": "[3]; Sauna (RT/7 days) (isopropanol)", "result": "No polymorphic conversion"}, {"measurement": "XRPD analysis results", "setting": "[3]; Sauna (RT/7 days) (water)", "result": "No polymorphic conversion"}, {"measurement": "XRPD analysis results", "setting": "[4]; Solvent-drop grinding (acetone)", "result": "No polymorphic conversion"}, {"measurement": "XRPD analysis results", "setting": "[4]; Solvent-drop grinding (ethanol)", "result": "No polymorphic conversion"}, {"measurement": "XRPD analysis results", "setting": "[4]; Solvent-drop grinding (ethyl-acetate)", "result": "No polymorphic conversion"}, {"measurement": "XRPD analysis results", "setting": "[4]; Solvent-drop grinding (isopropanol)", "result": "No polymorphic conversion"}, {"measurement": "XRPD analysis results", "setting": "[4]; Solvent-drop grinding (water)", "result": "No polymorphic conversion"}, {"measurement": "XRPD analysis results", "setting": "[4]; Strong grinding", "result": "No polymorphic conversion"}, {"measurement": "XRPD analysis after the grinding experiment", "setting": "[4]; strong grinding and solvent drop grinding in isopropanol, ethanol, ethyl acetate, acetone and water", "result": "no change in the starting material"}, {"measurement": "Result (XRPD analysis)", "setting": "[5]", "result": "no change in the starting material; also recorded: No polymorphic conversion"}, {"measurement": "XRPD analysis results", "setting": "[6]", "result": "No polymorphic conversion"}, {"measurement": "Stability under tested stress conditions", "setting": "[7]", "result": "stable under all tested stress conditions"}]}
